Reference: patent US20150064286A1, “PREPARATION AND COMPOSITIONS OF HIGHLY BIOAVAILABLE ZEROVALENT SULFUR AND USES THEREOF” (EMORY UNIVERSITY, priority 2011, published 2015)

What was measured:
[1] = Percentage bioactive sulfur contained in hydrogen sulfide prodrugs; format: physicochemical; settings: sulfur capable of being converted into hydrogen sulfide in vivo
[2] = test system: cavernosal smooth muscle; settings: Shukla et al., BJU Int. 2009; cited from earlier work
[3] = test system: p47^phox (a subunit of NOX); settings: Shukla et al., BJU Int. 2009; cited from earlier work
[4] = test system: NADPH oxidase (NOX); settings: Sparatore et al. 2011; cited from earlier work
[5] = test system: superoxide formation; settings: Shukla et al., BJU Int. 2009; cited from earlier work
[6] = biological target: phosphodiesterase type 5 (PDE5) (Homo sapiens, UniProt O76074); settings: Sparatore et al. 2011; cited from earlier work
[7] = Solubility in carbon disulfide; format: physicochemical
Description: The solubility of the composition in carbon disulfide was obtained by adding 6 mL of carbon disulfide to 0.500 g of the final product and determining the weight of the residue.

[8] = test system: pregnant rat uterus; settings: pregnant rat uterus in vitro, Sidhu et al. 2001; cited from earlier work
[9] = test system: angiogenesis; settings: NaHS in the drinking water, via increasing VEGF expression, Givvimani et al. 2011; cited from earlier work

Structure (SMILES)	% Bioactive sulfur (w/w) [1]	also measured
[Na+].[Na+].[S-2] [Na2S]	41 % (w/w)	–
c1ccc(CSSSCc2ccccc2)cc1 [Dibenzyl trisulfide]	11.5 % (w/w)	–
O=C(CCC/C=C\C[C@@H]1[C@@H](CC[C@@H](O)CCc2ccccc2)[C@H](O)C[C@@H]1O)Oc1ccc(-c2cc(=S)ss2)cc1 [ACS 67]	5.3 % (w/w)	–
C1COCCN1.COc1ccc(P(=S)(S)N2CCOCC2)cc1 (stereo not drawn) [GYY 4137]	8.5 % (w/w)	–
COc1ccc2c(c1)c(CC(=O)Oc1ccc(-c3cc(=S)ss3)cc1)c(C)n2C(=O)c1ccc(Cl)cc1 [ATB 343]	5.6 % (w/w)	–
O=C(Cc1ccccc1Nc1c(Cl)cccc1Cl)Oc1ccc(-c2cc(=S)ss2)cc1 [ACS 15]	6.3 % (w/w)	–
C=CCSSCC=C [Diallyl disulfide]	45.1 % (w/w)	–
NC(=S)c1ccc(O)cc1 [4-hydroxythiobenzamide]	20.9 % (w/w)	–
C[S+]([O-])CCCCN=C=S (stereo not drawn) [Sulforaphane]	18 % (w/w)	–
CCCc1nn(C)c2c(=O)[nH]c(-c3cc(S(=O)(=O)N4CCN(CC(=O)Oc5ccc(-c6cc(=S)ss6)cc5)CC4)ccc3OCC)nc12 [ACS 6]	3.5 % (w/w)	relaxation of cavernosal smooth muscle [2]: equipotently; inhibition of expression of p47phox [3]: more than sildenafil citrate; effect of H2S released by ACS6 on NOX expression activity [4]: inhibits; inhibition of superoxide formation [5]: more than sildenafil citrate; effect of H2S released by ACS6 on PDE5 [6]: inhibits
[S] [Pure alpha- or beta-elemental sulfur, elemental sulfur]	–	Solubility in carbon disulfide [7]: completely soluble
S [NaHS, sodium hydrogen sulfide]	57 % (w/w)	uterine spontaneous contractility [8]: significant dose-dependent decreases; angiogenesis [9]: augmented angiogenesis
COc1ccc2cc(C(C)C(=O)Oc3ccc(C(N)=S)cc3)ccc2c1 (stereo not drawn) [ATB 346]	8.8 % (w/w)	–
C=CCSSSCC=C [Diallyl trisulfide]	53.9 % (w/w)	–
